Data reported in patent US5254577A, “Aminomethyloxooxazolidinyl arylbenzene derivatives useful as antibacterial agents” (The Du Pont Merck Pharmaceutical Company, priority 1992, dated 1993).
≈ marks a conversion by molar mass, not a printed value. Read-outs that look alike come from different tables or passages of the source.

How the values were obtained:
Staphylococcus aureus [1] = assay: In vivo activity against Staphylococcus aureus in an acute lethal mouse model; settings: mice infected intraperitoneally, dosed 1 h and 4 h post-infection, survivors on seventh day
Procedure: The in vivo potency of these compounds is exemplified by the data summarized in Table X. Determinations of in vivo efficacy are performed by inoculating mice intraperitoneally with cultures of the infecting organism diluted to produce 100% mortality in control animals within twenty-four hours. The culture of S. aureus used to infect the animals was diluted to the required bacterial density using 5% aqueous hog gastric mucin. The compounds are dissolved or suspended in 0.25% aqueous Methocel® (Methocel®: Hydroxypropyl Methylcullulose, E15 Premium, Dow Chemical Company) for oral administration or sterile distilled water containing 5% dimethylsulfoxide (Fisher Scientific Company, Fairlawn, N.J.) for subcutaneous administration. The mice are dosed at one hour and at four hours post-infection. Mortality is recorded daily until test determination seven days post infection. The number of survivors in each treatment group on the seventh day after infection is used in the calculation of the ED50, the dose of compound that protects 50% of the mice (Litchfield,J. T. and Wildoxon. A simulated method for evaluating dose-effect experiments. J. Pharmacol Exp. Ther., 98:99-113, 1949).

Escherichia coli = assay: In vitro broth microdilution, 24-hour minimal inhibitory concentration (MIC); type: cell-based; settings: Mueller-Hinton broth; for MIC: read-out: Minimum Inhibitory Concentration
Source text: (§1) A standard microdilution method (National Committee for Clinical Standards. Tentative standard M7-T. Standard methods for dilution antimicrobial susceptibility tests for bacteria that grow aerobically. National Committee for Clinical Laboratory Standards, Villanova, Pa. 1982) with Mueller-Hinton broth is used to determine the 24-hour minimal inhibitory concentrations (MIC's) for test strains of Staphylococcus aureus and Escherichia coli.

Staphylococcus aureus [2] = assay: as above; type: cell-based; settings: Mueller-Hinton broth; for MIC: read-out: Minimum Inhibitory Concentration
Source text: as §1

[3] = Staphylococcus aureus, sc, 168 h, Subcutaneous Administration, read-out: ED50
[4] = Staphylococcus aureus, 168 h, Oral Administration, read-out: ED50

Row | SMILES | ED50 (Staphylococcus aureus [1]; [3]) | MIC (Escherichia coli) | MIC (Staphylococcus aureus [2]) | ED50 (Staphylococcus aureus [1]; [4]) | ED50 (Staphylococcus aureus [1]; Oral Administration, 10080 min) | ED50 (Staphylococcus aureus [1]; Subcutaneous Administration, 10080 min) | Minimum Inhibitory Concentration (Escherichia coli) | Minimum Inhibitory Concentration (Staphylococcus aureus [2])
1 | CC(=O)NC[C@H]1CN(c2ccc(-c3ccc(CN(CCO)CCO)cc3)cc2)C(=O)O1 [Example 50] | 6.5 mg/kg | > 128 µg/mL | 0.5 µg/mL (≈ 1.17 µM) |  |  |  |  | 
2 | CC(=O)NC[C@H]1CN(c2ccc(-c3ccc(C(=O)CCN(C)C)cc3)cc2)C(=O)O1 [Example 57, (l)-N-[3-(4-(4'-(3-N,N-dimethylaminopropionyl)phenyl)phenyl)-2-oxooxazolidin-5-ylmethyl]acetamide] | 10 mg/kg | > 128 µg/mL | 1 µg/mL (≈ 2.44 µM) | 18 mg/kg |  |  |  | 
3 | CC(=O)NC[C@H]1CN(c2ccc(-c3ccc(C(=O)CCN4CCN(C)CC4)cc3)cc2)C(=O)O1 [Example 60] | 5.5 mg/kg | > 128 µg/mL | 1 µg/mL (≈ 2.15 µM) | 30 mg/kg |  |  |  | 
4 | CC(=O)NC[C@H]1CN(c2ccc(-c3ccc(C(O)CCN4CCN(C)CC4)cc3)cc2)C(=O)O1 (stereo partly drawn) [Example 61] | 2.7 mg/kg | > 128 µg/mL | 2 µg/mL (≈ 4.29 µM) | 47.4 mg/kg |  |  |  | 
5 | CC(=O)NC[C@H]1CN(c2ccc(-c3ccc(C(=O)C(C)CN4CCN(C)CC4)cc3)cc2)C(=O)O1 (stereo partly drawn) [Example 62] | 10 mg/kg | > 128 µg/mL | 2 µg/mL (≈ 4.18 µM) | 51.9 mg/kg |  |  |  | 
6 | C=C(C)C(=O)c1ccc(-c2ccc(N3C[C@H](CNC(C)=O)OC3=O)cc2)cc1 [Example 63] | > 90 mg/kg | > 128 µg/mL | 0.25 µg/mL (≈ 0.661 µM) | > 90 mg/kg |  |  |  | 
7 | CC(=O)NC[C@H]1CN(c2ccc(-c3ccc(C(O)C(C)CN4CCN(C)CC4)cc3)cc2)C(=O)O1 (stereo partly drawn) [Example 64] | 11 mg/kg | > 128 µg/mL | 4 µg/mL (≈ 8.32 µM) | 50 mg/kg |  |  |  | 
8 | CSc1ccc(-c2ccc(N3C[C@H](CNC(C)=O)OC3=O)cc2)cc1 [Example 67, (l)-N-[3-(4-(4'-methylthiophenyl)phenyl)-2-oxooxazolidin-5-ylmethyl]acetamide] | 30 mg/kg | > 128 µg/mL | 0.25 µg/mL (≈ 0.701 µM) | 4.5 mg/kg |  |  |  | 
9 | CC(=O)NCC1CN(c2ccc(-c3ccc(S(C)(=O)=O)cc3)cc2)C(=O)O1 (stereo not drawn) [Example 69, (l)-N-[3-(4-(4'-Methylsulfonylphenyl)phenyl)-2-oxooxazolidin-5-ylmethyl]acetamide] |  |  |  |  | 4 mg/kg | 1.2 mg/kg | > 128 µg/mL | 0.25 µg/mL
10 | CCc1cccc(-c2ccc(N3C[C@H](CNC(C)=O)OC3=O)cc2)c1 [Example 70] | 10 mg/kg | > 128 µg/mL | 2 µg/mL (≈ 5.91 µM) | 17 mg/kg |  |  |  | 
11 | CC(=O)NC[C@H]1CN(c2ccc(-c3ccccc3C)cc2)C(=O)O1 [Example 71] | > 90 mg/kg | > 128 µg/mL | 2 µg/mL (≈ 6.17 µM) | 51.9 mg/kg |  |  |  | 
12 | CC(=O)NC[C@H]1CN(c2ccc(-c3cccc(N)c3)cc2)C(=O)O1 [Example 73] | 5 mg/kg | > 128 µg/mL | 0.5 µg/mL (≈ 1.54 µM) | 11.8 mg/kg |  |  |  | 
13 | CC(=O)NC[C@H]1CN(c2ccc(-c3cccc(N(C)C)c3)cc2)C(=O)O1 [Example 74] | 17.1 mg/kg | > 128 µg/mL | 8 µg/mL (≈ 22.6 µM) |  |  |  |  | 
14 | CC(=O)NC[C@H]1CN(c2ccc(-c3ccncc3)cc2)C(=O)O1 [Example 85, (l)-N-[3-(4-(4-Pyridyl)phenyl)-2-oxooxazolidin-5-ylmethyl]acetamide] | 0.5 mg/kg | > 128 µg/mL | < 0.13 µg/mL | 1.3 mg/kg |  |  |  | 
15 | CC(=O)NC[C@H]1CN(c2ccc(-c3ccccn3)cc2)C(=O)O1 [Example 86] | 15.5 mg/kg | > 128 µg/mL | 2 µg/mL (≈ 6.42 µM) |  |  |  |  | 
16 | CC(=O)NC[C@H]1CN(c2ccc(-c3cccc[n+]3[O-])cc2)C(=O)O1 [Example 87] | 9.8 mg/kg | > 128 µg/mL | 32 µg/mL (≈ 97.8 µM) | 16.1 mg/kg |  |  |  | 
17 | CC(=O)NC[C@H]1CN(c2ccc(-c3cccnc3)cc2)C(=O)O1 [Example 88] | 0.5 mg/kg | > 128 µg/mL | < 0.13 µg/mL | 1.6 mg/kg |  |  |  | 
18 | CC(=O)NC[C@H]1CN(c2ccc(-c3ccc[n+]([O-])c3)cc2)C(=O)O1 [Example 89] | < 3.3 mg/kg | > 128 µg/mL | 2 µg/mL (≈ 6.11 µM) | 2 mg/kg |  |  |  | 
